# Assay results from ChEMBL document CHEMBL5625204, “Synthesis and pharmacodynamic evaluation of naphthalene derivatives against influenza A virus in vitro and in vivo” (Eur J Med Chem, 2023).
# Active and inactive are the calls of the source. The calls are words filed in the database; no cut-off is given here.
# How the values were obtained:
# Erythrocyte = experiment: Inhibition of Hemagglutinin2 in Influenza A virus assessed as inhibition of virus-induced hemolysis at 7.81 to 250 uM pretreated with virus for 30 mins followed by chicken RBC addition and measured after 30 mins; assay type: cell-based; conditions: dose 7.81-250 µM, time 60.0 min
# [1] = Selectivity index, ratio of CC50 for dog MDCK cells to EC50 for antiviral activity against Influenza A virus H1N1 (A/Weiss/43) infected in MDCK cells treated for 2 hrs during viral adsorption and measured after 72 hrs; assay type: toxicity, cell-based; conditions: read-out: Ratio CC50/EC50
# Influenza A virus [2] = experiment: Antiviral activity against Influenza A virus H1N1 (A/Weiss/43) infected in MDCK cells assessed as reduction of viral replication treated for 2 hrs during viral adsorption and measured after 72 hrs by TCID50 method; assay type: functional, organism-based
# [3] = Cytotoxicity against dog MDCK cells assessed as reduction in cell viability incubated for 72 hrs by MTT assay; assay type: toxicity, cell-based, Canis lupus familiaris
# MDCK = experiment: Cytotoxicity against dog MDCK cells assessed as cell pathological changes at 50 uM by microscopic analysis; assay type: toxicity, cell-based, Canis lupus familiaris
# Influenza A virus [4] = experiment: Antiviral activity against Influenza A virus H1N1 (A/Weiss/43)-infected in BALB/c mouse assessed as reduction in lung index at 100 mg/kg/day administered intranasally for 6 days starting from 3 hrs post-viral infection; assay type: functional; conditions: 144 h, route nas, time 6 day
# [5] = Selectivity index, ratio of CC50 for dog MDCK cells to EC50 for antiviral activity against Influenza A virus H3N2 (A/California/2004) infected in MDCK cells; assay type: toxicity, cell-based; conditions: read-out: Ratio CC50/EC50
# Influenza A virus [6] = experiment: Inhibition of Influenza A virus replication infected in human A549 cells assessed as downregulation of virus NP protein expression at 25 to 50 uM measured after 24 hrs by western blot analysis; assay type: functional, organism-based; conditions: dose 25-50 µM
# Influenza A virus [7] = experiment: Antiviral activity against Influenza A virus H1N1 (A/Weiss/43)-infected in dog MDCK cells assessed as reduction in oxidative stress by measuring proportion of cells with excessive ROS accumulation at 50 uM treated at 2 hrs post-infection and measured after 36 hrs by DCFH-DA staining based flow cytometry (reference value: 30.6%); assay type: functional; design: scale not given: the % may be the effect or the level left
# [8] = Toxicity in dog MDCK cells assessed as ROS production by measuring proportion of normal cells at 50 uM measured after 36 hrs by DCFH-DA staining based flow cytometry (reference value: 99.9%); assay type: cell-based, Canis lupus familiaris
# [9] = Toxicity in dog MDCK cells assessed as ROS production by measuring proportion of cells with excessive ROS accumulation at 50 uM measured after 36 hrs by DCFH-DA staining based flow cytometry (reference value: 0.094%); assay type: cell-based, Canis lupus familiaris
# Influenza A virus [10] = experiment: Antiviral activity against Influenza A virus H1N1 infected in dog MDCK cells assessed as decrease in apoptosis by measuring proportion of necrotic cells at 25 uM measured after 72 hrs by AnnexinV-FITC/PI staining based flow cytometry (reference value: 2.47%); assay type: functional; design: scale not given: the % may be the effect or the level left
# Influenza A virus [11] = experiment: Antiviral activity against Influenza A virus H1N1 infected in dog MDCK cells assessed as decrease in apoptosis by measuring proportion of viable cells at 50 uM measured after 72 hrs by AnnexinV-FITC/PI staining based flow cytometry (reference value: 62.9%); assay type: functional
# Influenza A virus [12] = experiment: Antiviral activity against Influenza A virus H1N1 infected in dog MDCK cells assessed as decrease in apoptosis by measuring proportion of late apoptotic cells at 50 uM measured after 72 hrs by AnnexinV-FITC/PI staining based flow cytometry (reference value: 10.3%); assay type: functional; design: scale not given: the % may be the effect or the level left
# Influenza A virus [13] = experiment: Antiviral activity against Influenza A virus H1N1 infected in dog MDCK cells assessed as decrease in apoptosis by measuring proportion of necrotic cells at 50 uM measured after 72 hrs by AnnexinV-FITC/PI staining based flow cytometry (reference value: 2.47%); assay type: functional; design: scale not given: the % may be the effect or the level left
# [14] = Toxicity in dog MDCK cells assessed as proportion of viable cells at 50 uM measured after 72 hrs by AnnexinV-FITC/PI staining based flow cytometry (reference value: 90.6%); assay type: cell-based, Canis lupus familiaris; conditions: read-out: Activity
# [15] = Toxicity in dog MDCK cells assessed as proportion of early apoptotic cells at 50 uM measured after 72 hrs by AnnexinV-FITC/PI staining based flow cytometry (reference value: 4.51%); assay type: cell-based, Canis lupus familiaris
# [16] = Toxicity in dog MDCK cells assessed as proportion of late apoptotic cells at 50 uM measured after 72 hrs by AnnexinV-FITC/PI staining based flow cytometry (reference value: 3.45%); assay type: cell-based, Canis lupus familiaris
# Influenza A virus [17] = experiment: Antiviral activity against Influenza A virus H1N1 infected in human A549 cells assessed as decrease in apoptosis by measuring decrease in cleaved PARP protein expression at 25 to 50 uM measured after 24 hrs by western blot analysis; assay type: functional, organism-based; conditions: dose 25-50 µM
# Influenza A virus [18] = experiment: Antiviral activity against Influenza A virus H1N1 infected in human A549 cells assessed as decrease in RIG-1 pathway related protein expression by measuring decrease in RIG-1 protein expression at 25 to 50 uM measured after 24 hrs by western blot analysis; assay type: functional, organism-based; conditions: dose 25-50 µM
# Influenza A virus [19] = experiment: Antiviral activity against Influenza A virus H1N1 infected in human A549 cells assessed as decrease in RIG-1 pathway related gene expression by measuring decrease in IRF3 gene expression at 25 to 50 uM measured after 24 hrs by qRT-PCR analysis; assay type: functional, organism-based; conditions: dose 25-50 µM
# Influenza A virus [20] = experiment: Antiviral activity against Influenza A virus H1N1 infected in human A549 cells assessed as decrease in RIG-1 pathway related gene expression by measuring decrease in IRF7 gene expression at 25 to 50 uM measured after 24 hrs by qRT-PCR analysis; assay type: functional, organism-based; conditions: dose 25-50 µM
# Influenza A virus [21] = experiment: Antiviral activity against Influenza A virus H1N1 infected in human A549 cells assessed as decrease in apoptosis inducing factor gene expression by measuring decrease in FasL gene expression at 25 to 50 uM measured after 24 hrs by qRT-PCR analysis; assay type: functional, organism-based; conditions: dose 25-50 µM
# [22] = Toxicity in BALB/c mouse infected with Influenza A virus H1N1 (A/Weiss/43) assessed as kidney pathological changes at 25 to 100 mg/kg/day administered intranasally for 6 days starting from 3 hrs post-viral infection by Hematoxylin-Eosin staining based analysis; assay type: organism-based; conditions: in vivo, inhaled_or_intranasal, 144 h, dose 25-100 mg/kg/day, route nas, time 6 day
# Influenza A virus [23] = experiment: Antiviral activity against Influenza A virus H1N1 (A/Weiss/43)-infected in BALB/c mouse assessed as reduction in MyD88 gene expression in lungs at 25 to 100 mg/kg/day administered intranasally for 6 days starting from 3 hrs post-viral infection by qRT-PCR analysis; assay type: functional, organism-based; conditions: dose 25-100 mg/kg/day, route nas, time 6.0 day
# Influenza A virus [24] = experiment: Antiviral activity against Influenza A virus H1N1 (A/Weiss/43)-infected in BALB/c mouse assessed as reduction in IL-8 gene expression in lungs at 25 to 100 mg/kg/day administered intranasally for 6 days starting from 3 hrs post-viral infection by qRT-PCR analysis; assay type: functional, organism-based; conditions: dose 25-100 mg/kg/day, route nas, time 6.0 day
smiles,measurement,setting,value
O=[N+]([O-])c1ccc(S(=O)(=O)N(Cc2ccccc2)c2cccc3ccccc23)cc1,inhibition,Erythrocyte,inactive
same,selectivity ratio at 72 h,[1],> 131
same,EC50,Influenza A virus [2],6.09 µM
same,CC50 at 72 h,[3],> 800 µM
same,Activity,MDCK,Non-Toxic
same,inhibition in vivo at 100 mg/kg/day,Influenza A virus [4],43.3%
same,selectivity ratio,[5],> 121
same,inhibition,Influenza A virus [6],Active
same,Activity,Influenza A virus [7],4.66%
same,Activity,[8],98.6%
same,Activity,[9],1.36%
same,Activity,Influenza A virus [10],0.81%
same,Activity,Influenza A virus [11],95.4%
same,Activity,Influenza A virus [12],1.09%
same,Activity,Influenza A virus [13],0.6%
same,"viability at 72 h, 50 µM",[14],96.9%
same,Activity,[15],1.56%
same,Activity,[16],0.71%
same,inhibition,Influenza A virus [17],Active
same,inhibition,Influenza A virus [18],Active
same,inhibition,Influenza A virus [19],Active
same,inhibition,Influenza A virus [20],Active
same,inhibition,Influenza A virus [21],Active
same,Activity,[22],Non-Toxic
same,Activity,Influenza A virus [23],Active
same,Activity,Influenza A virus [24],Active
